“And” between values parts separate entries of the source, which are not always exact repeats. Equal values may be shown once.
What was measured:
[1] = Laurdan fluorescence ratio (lamellar/non-lamellar phase state); format: physicochemical; conditions: for Ratio of Laurdan fluorescence 360/390: 360 and 390 nm; for Ratio of Laurdan fluorescence 360/490: 360 and 490 nm
Excerpt: (§1) Laurdan (6-dodecanoyl-2-dimethylaminonaphthalene) is a fluorescent membrane probe that has the advantage of displaying spectral sensitivity to the phospholipids phase state.
as §1

[2] = Airway patency in a capillary surfactometer; conditions: 37 C, graded concentrations of albumin
Experimental: This is evaluated in a capillary surfactometer at 37 C at a concentration of 1 mg/ml of the surfactant in the presence of 0.5 mg/ml of albumin.
FIG. 2 compares the airway patency of DPPC:Eugenol 5:3 (present invention) at a concentration of 1 mg/ml with that of DPPC:clove oil 5:3 1 mg/ml in the absence and presence of 0.5 mg/ml of albumin in a capillary surfactometer at 37 C.

[3] = Surfactant adsorption to air-liquid interface in a langmuir trough; format: physicochemical
Experimental: Salbutamol or dexamethasone were added in a ratio of 1 part of surfactant to 0.1 parts of drug while gentamycin was added in a ratio of 1 part of surfactant to 0.2 parts of drug by weight.

[4] = Differential scanning calorimetry: energy required by liposomes to reach the interface; format: physicochemical; conditions: liposomes 1 mg/ml
Experimental: Differential scanning calorimetry (DSC) was also used to study the interaction of bioactive compounds with model lipid bilayers such as DPPC. The experiments were performed at temperature ranging from 35° C. to 115° C. The rate of heating was 3° C./min and the system was allowed to cool to about 35° C. before the next experiment. The samples studied in the order of DSC results were,
Differential scanning calorimetry (DSC) was used to study the interaction of bioactive compounds with model lipid bilayers such as DPPC. The experiments were performed at temperature ranging from 35° C. to 115° C. The rate of heating was 3° C./min and the system was allowed to cool to about 35° C. before the next experiment. […] The lower the energy required by the nanovesicles, better is the rate of adsorption. […] On addition of HCl (as an acid inhibitor), there was an increase in the energy (1743 J/g) of the DPPC liposomes which affected the adsorption (59.89±2.22mN/m) of these acid-treated liposomes. The energy barrier prevented the rapid entry of these liposomes at the interface thereby affecting adsorption.

[5] = Atomic force microscopy of surfactant films in presence of albumin; format: physicochemical; conditions: in the presence of albumin
Excerpt: The invented surfactant of DPPC: eugenol 5:3 forms closely packed structures having nanodomains in the presence of albumin. The DPPC: eugenol surfactant in the absence and presence of albumin was compared with that of DPPC alone in the absence and presence of albumin, using atomic force microscopy (AFM). AFM images of DPPC in the presence of albumin and DPPC: eugenol 5:3 in the presence of albumin are depicted in FIGS. 11 and 13 respectively and the roughness of the structures are depicted in FIGS. 12 and 14. […] The surface roughness of DPPC in the presence of albumin is depicted in FIG. 12. It confirms large aggregates with roughness of 47.47 nm. On the other hand, in the case of DPPC: eugenol in the presence of albumin, the surface roughness is only 8.9 nm as depicted in FIG. 14. The formation of nanodomains of 80-90 nm with surface roughness of 8.9 nm allows a closely packed organization which accounts for the improved surface activity of the surfactant in the presence of albumin.

Ratio of Laurdan fluorescence 360/390 ([1]; in the presence of albumin)	Ratio of Laurdan fluorescence 360/390 ([1]; no albumin)	Ratio of Laurdan fluorescence 360/490 ([1]; in the presence of albumin)	Ratio of Laurdan fluorescence 360/490 ([1]; no albumin)	Adsorption (rate of adsorption, surface tension) ([3]; acid-treated, HCl 3.1×10^−1 moles/dm^3)	Adsorption (rate of adsorption, surface tension) ([3]; acid-untreated, liposomes 1 mg/ml)	Energy required for the liposomes to reach the interface (DSC) ([4]; HCl 3.1×10^−1 moles/dm^3)	Energy required for the liposomes to reach the interface (DSC) ([4]; acid-untreated)	Domain size (AFM) [5]	Surface roughness (AFM) [5]	SMILES	Airway patency in presence of graded amounts of albumin [2]
1.98 and 1.99	2.6 and 2.615	1.21 and 1.215	2.41	59.89±2.22 mN/m	44.66±1.71 mN/m	1743 J/g	1325 J/g	540-550 nm	47.47 nm	CCCCCCCCCCCCCCCC(=O)OC[C@H](COP(=O)([O-])OCC[N+](C)(C)C)OC(=O)CCCCCCCCCCCCCCC [DPPC, dipalmitoylphosphatidylcholine]	0%
–	–	–	–	–	–	–	–	–	–	C=CCc1ccc(O)c(OC)c1 [eugenol]	0%

Reference: patent US9345716B2, “Protein free surfactant composition for pulmonary diseases and a process for preparing the same” (INDIAN INSTITUTE OF TECHNOLOGY, BOMBAY, priority 2010, dated 2016)
